Results: patent publication US20250296971A1, “GASTRIC INHIBITORY PEPTIDE RECEPTOR LIGANDS” (priority 2021, published 2025)
*1 amine or outer side, *2 acyl side, *3 side chain or, on linkers, in order; H or OH if unused. Where a SMILES comes first, the peptide text is derived from it. Bridges are numbered along the chain shown (N, C = ends). [ ]: non-standard residue; d: D form. The star is where a group is joined. NH(1-deoxy-D-glucityl) = OC[C@@H](O)[C@@H](O)[C@H](O)[C@@H](O)CN*; DOTA = O=C(O)CN1CCN(CC(=O)O)CCN(CC(=O)*)CCN(CC(=O)O)CC1; Trp(5-Cl) = N[C@@H](Cc1c[nH]c2ccc(Cl)cc12)C(=O)O; Pyridine(2,6-diCH2) = c1cc(C[*:1])nc(C[*:2])c1; Pro(4R-NH2) = N[C@H]1CN[C@H](C(=O)O)C1; Glutaryl = O=C(CCCC(=O)[*:2])[*:1]; PEG6 = NCCOCCOCCOCCOCCOCCOCCC(=O)O; X1 = O=C(CN1CCC(N[*:1])CC1)[*:2]; Suc = O=C(CCC(=O)[*:2])[*:1]; dDab = NCC[C@@H](N)C(=O)O; Api = NC1(C(=O)O)CCNCC1; Dab = NCC[C@H](N)C(=O)O; Thp = NC1(C(=O)O)CCOCC1; AEEA = NCCOCCOCC(=O)O

Molecular target: T1, GIPR (CHO-K1-hGIPR cells) (Homo sapiens, UniProt P48546)
T1 construct: host or cells: CHO-K1
T1 sequence (P48546 22-466): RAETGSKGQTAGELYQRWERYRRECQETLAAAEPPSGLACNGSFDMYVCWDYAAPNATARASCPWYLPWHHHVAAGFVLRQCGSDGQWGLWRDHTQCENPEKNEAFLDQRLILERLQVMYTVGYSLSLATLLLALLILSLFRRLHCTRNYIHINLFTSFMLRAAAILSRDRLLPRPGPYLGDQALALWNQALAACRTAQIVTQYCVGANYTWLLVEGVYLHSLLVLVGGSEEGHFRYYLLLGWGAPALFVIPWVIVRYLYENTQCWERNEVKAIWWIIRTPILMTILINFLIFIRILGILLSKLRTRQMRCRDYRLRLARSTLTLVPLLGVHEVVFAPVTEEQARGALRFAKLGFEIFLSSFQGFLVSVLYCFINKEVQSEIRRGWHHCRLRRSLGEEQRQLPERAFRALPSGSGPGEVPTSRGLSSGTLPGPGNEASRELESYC
Experiment: FACS binding assay
Conditions: competition with 20 nM GIP-057, 4° C., 1 hour, read-out: pIC50 Category (converted)
Description: In order to determine binding of compounds according to the present invention to GIPR-expressing cells, a FACS binding assay was established.
CHO-K1-hGIPR cells (GenScript Biotech, #M00486) were cultured in Ham's F12 medium (Sigma-Aldrich, #N4888) including 10% fetal calf serum (FCS), 2 mM L-glutamine, 100 U/mL penicillin, 100 μg/mL streptomycin, 200 μg/mL Zeocin and 100 μg/mL HygromycinB. Cells were detached with Accutase (Biolegend, #BLD-423201) and washed in FACS buffer (PBS including 1% FCS). Cells were diluted in FACS buffer to a final concentration of 500.000 cells per mL. 200 μL of the cell suspension were transferred to a u-shaped non-binding 96-well plate (Greiner) and cells were washed in ice-cold FACS buffer.
Cells were washed twice in FACS buffer. An additional incubation step with 1 μg/mL APC-Streptavidin (Miltenyi; #130-106-791) in 50 μL FACS buffer for 30 min on ice was performed followed by two washes with FACS buffer.
Cells were analyzed in an Attune NxT flow cytometer. Median fluorescence intensities (MFI) of the APC/Cy5-channel were calculated by Attune NxT software. MFI values were plotted against peptide concentration and four parameter logistic (4PL) curve fitting and EC50/pEC50 or IC50/pIC50 calculations were performed using ActivityBase software.

Row | Structure (SMILES) | IC50 [nM]
1 | CC[C@H](C)[C@@H]1NC(=O)[C@H](CC(C)C)NC(=O)C2(CCOCC2)NC(=O)[C@@H](NC(=O)[C@@H](CC(C)C)NC(=O)[C@H](CCC(=O)O)NC(=O)[C@@H]2C[C@@H](N)CN2C(=O)[C@H](Cc2c[nH]c3ccc(Cl)cc23)NC(=O)[C@H](Cc2c[nH]c3ccccc23)NC(=O)[C@H](CC(=O)O)NC(=O)[C@@H](CCC(=O)NC[C@H](O)[C@@H](O)[C@H](O)[C@H](O)CO)NC(=O)COCCOCCNC(=O)CN2CCN(CC(=O)O)CCN(CC(=O)O)CCN(CC(=O)O)CC2)CSCc2cccc(n2)CSC[C@@H](C(=O)NC2CCN(CC(=O)N[C@H](CCC(=O)NC[C@H](O)[C@@H](O)[C@H](O)[C@H](O)CO)C(N)=O)CC2)NC1=O [GIP-018, DOTA-O2Oc-glu(AGLU)-Asp-Trp-5Clw-Tap-Glu-leu-[Cys(2Lut)-Thp-Leu-Ile-Cys]-APAc-glu(AGLU)-NH2] ({DOTA-AEEA}-[dE](NH(1-deoxy-D-glucityl))DW[Trp(5-Cl)][Pro(4R-NH2)]E[dL]C[Thp]LIC[X1][dE](NH(1-deoxy-D-glucityl))-NH2; linker 8-12 via Pyridine(2,6-diCH2)) | < 10
2 | CC[C@H](C)[C@@H]1NC(=O)[C@H](CC(C)C)NC(=O)C2(CCOCC2)NC(=O)[C@@H](NC(=O)[C@@H](CC(C)C)NC(=O)[C@H](CCC(=O)O)NC(=O)[C@@H]2C[C@@H](N)CN2C(=O)[C@H](Cc2c[nH]c3ccc(Cl)cc23)NC(=O)[C@H](Cc2c[nH]c3ccccc23)NC(=O)[C@H](CC(=O)O)NC(=O)CCOCCOCCOCCOCCOCCOCCNC(=O)[C@@H](CCC(=O)NC[C@H](O)[C@@H](O)[C@H](O)[C@H](O)CO)NC(=O)CN2CCN(CC(=O)O)CCN(CC(=O)O)CCN(CC(=O)O)CC2)CSCc2cccc(n2)CSC[C@@H](C(=O)NC2CCN(CC(=O)N[C@H](CCC(=O)NC[C@H](O)[C@@H](O)[C@H](O)[C@H](O)CO)C(N)=O)CC2)NC1=O [GIP-019, DOTA-glu(AGLU)-PEG6-Asp-Trp-5Clw-Tap-Glu-leu-[Cys(2Lut)-Thp-Leu-Ile-Cys]-APAc-glu(AGLU)-NH2] ({DOTA}-[dE](NH(1-deoxy-D-glucityl))[PEG6]DW[Trp(5-Cl)][Pro(4R-NH2)]E[dL]C[Thp]LIC[X1][dE](NH(1-deoxy-D-glucityl))-NH2; linker 9-13 via Pyridine(2,6-diCH2)) | < 10
3 | CC[C@H](C)[C@@H]1NC(=O)[C@H](CC(C)C)NC(=O)C2(CCOCC2)NC(=O)[C@@H](NC(=O)[C@@H](CC(C)C)NC(=O)[C@H](CCC(=O)O)NC(=O)[C@@H]2C[C@@H](N)CN2C(=O)[C@H](Cc2c[nH]c3ccc(Cl)cc23)NC(=O)[C@H](Cc2c[nH]c3ccccc23)NC(=O)[C@H](CC(=O)O)NC(=O)COCCOCCNC(=O)[C@@H](CCC(=O)NC[C@H](O)[C@@H](O)[C@H](O)[C@H](O)CO)NC(=O)CN2CCN(CC(=O)O)CCN(CC(=O)O)CCN(CC(=O)O)CC2)CSCc2cccc(n2)CSC[C@@H](C(=O)NC2CCN(CC(=O)N[C@H](CCC(=O)NC[C@H](O)[C@@H](O)[C@H](O)[C@H](O)CO)C(N)=O)CC2)NC1=O [GIP-020, DOTA-glu(AGLU)-O2Oc-Asp-Trp-5Clw-Tap-Glu-leu-[Cys(2Lut)-Thp-Leu-Ile-Cys]-APAc-glu(AGLU)-NH2] ({DOTA}-[dE](NH(1-deoxy-D-glucityl))[AEEA]DW[Trp(5-Cl)][Pro(4R-NH2)]E[dL]C[Thp]LIC[X1][dE](NH(1-deoxy-D-glucityl))-NH2; linker 9-13 via Pyridine(2,6-diCH2)) | < 10
4 | CC[C@H](C)[C@@H]1NC(=O)[C@H](CC(C)C)NC(=O)C2(CCN(C(=O)CN3CCN(CC(=O)O)CCN(CC(=O)O)CCN(CC(=O)O)CC3)CC2)NC(=O)[C@@H](NC(=O)[C@@H](CC(C)C)NC(=O)[C@H](CCC(=O)O)NC(=O)[C@@H]2C[C@@H](N)CN2C(=O)[C@H](Cc2c[nH]c3ccc(Cl)cc23)NC(=O)[C@H](Cc2c[nH]c3ccccc23)NC(=O)CCC(=O)O)CSCc2cccc(n2)CSC[C@@H](C(=O)NC2CCN(CC(=O)N[C@H](CCC(=O)NC[C@H](O)[C@@H](O)[C@H](O)[C@H](O)CO)C(N)=O)CC2)NC1=O [GIP-023, HO-Succinyl-Trp-5Clw-Tap-Glu-leu-[Cys(2Lut)-Apc(DOTA)-Leu-Ile-Cys]-APAc-glu(AGLU)-NH2] (Suc-W[Trp(5-Cl)][Pro(4R-NH2)]E[dL]C[Api](DOTA)LIC[X1][dE](NH(1-deoxy-D-glucityl))-NH2; linker 6-10 via Pyridine(2,6-diCH2)) | < 10
5 | CC[C@H](C)[C@@H]1NC(=O)[C@H](CC(C)C)NC(=O)[C@H](CCCCNC(=O)CN2CCN(CC(=O)O)CCN(CC(=O)O)CCN(CC(=O)O)CC2)NC(=O)[C@@H](NC(=O)[C@@H](CC(C)C)NC(=O)[C@H](CCC(=O)O)NC(=O)[C@@H]2C[C@@H](N)CN2C(=O)[C@H](Cc2c[nH]c3ccc(Cl)cc23)NC(=O)[C@H](Cc2c[nH]c3ccccc23)NC(=O)[C@H](CC(=O)O)NC(=O)CCCC(=O)NC[C@H](O)[C@@H](O)[C@H](O)[C@H](O)CO)CSCc2cccc(n2)CSC[C@@H](C(=O)NC2CCN(CC(=O)N[C@H](CCC(=O)NC[C@H](O)[C@@H](O)[C@H](O)[C@H](O)CO)C(N)=O)CC2)NC1=O [GIP-024, AGLU-Glutar-Asp-Trp-5Clw-Tap-Glu-leu-[Cys(2Lut)-Lys(DOTA)-Leu-Ile-Cys]-APAc-glu(AGLU)-NH2] ({NH(1-deoxy-D-glucityl)-Glutaryl}-DW[Trp(5-Cl)][Pro(4R-NH2)]E[dL]CK(DOTA)LIC[X1][dE](NH(1-deoxy-D-glucityl))-NH2; linker 7-11 via Pyridine(2,6-diCH2)) | < 10
6 | CC[C@H](C)[C@@H]1NC(=O)[C@H](CC(C)C)NC(=O)[C@@H](CCCCNC(=O)CN2CCN(CC(=O)O)CCN(CC(=O)O)CCN(CC(=O)O)CC2)NC(=O)[C@@H](NC(=O)[C@@H](CC(C)C)NC(=O)[C@H](CCC(=O)O)NC(=O)[C@@H]2C[C@@H](N)CN2C(=O)[C@H](Cc2c[nH]c3ccc(Cl)cc23)NC(=O)[C@H](Cc2c[nH]c3ccccc23)NC(=O)[C@H](CC(=O)O)NC(=O)CCCC(=O)NC[C@H](O)[C@@H](O)[C@H](O)[C@H](O)CO)CSCc2cccc(n2)CSC[C@@H](C(=O)NC2CCN(CC(=O)N[C@H](CCC(=O)NC[C@H](O)[C@@H](O)[C@H](O)[C@H](O)CO)C(N)=O)CC2)NC1=O [GIP-025, AGLU-Glutar-Asp-Trp-5Clw-Tap-Glu-leu-[Cys(2Lut)-lys(DOTA)-Leu-Ile-Cys]-APAc-glu(AGLU)-NH2] ({NH(1-deoxy-D-glucityl)-Glutaryl}-DW[Trp(5-Cl)][Pro(4R-NH2)]E[dL]C[dK](DOTA)LIC[X1][dE](NH(1-deoxy-D-glucityl))-NH2; linker 7-11 via Pyridine(2,6-diCH2)) | 10 to 79.4
7 | CC[C@H](C)[C@@H]1NC(=O)[C@H](CC(C)C)NC(=O)[C@H](CCNC(=O)CN2CCN(CC(=O)O)CCN(CC(=O)O)CCN(CC(=O)O)CC2)NC(=O)[C@@H](NC(=O)[C@@H](CC(C)C)NC(=O)[C@H](CCC(=O)O)NC(=O)[C@@H]2C[C@@H](N)CN2C(=O)[C@H](Cc2c[nH]c3ccc(Cl)cc23)NC(=O)[C@H](Cc2c[nH]c3ccccc23)NC(=O)[C@H](CC(=O)O)NC(=O)CCCC(=O)NC[C@H](O)[C@@H](O)[C@H](O)[C@H](O)CO)CSCc2cccc(n2)CSC[C@@H](C(=O)NC2CCN(CC(=O)N[C@H](CCC(=O)NC[C@H](O)[C@@H](O)[C@H](O)[C@H](O)CO)C(N)=O)CC2)NC1=O [GIP-026, AGLU-Glutar-Asp-Trp-5Clw-Tap-Glu-leu-[Cys(2Lut)-Dab(DOTA)-Leu-Ile-Cys]-APAc-glu(AGLU)-NH2] ({NH(1-deoxy-D-glucityl)-Glutaryl}-DW[Trp(5-Cl)][Pro(4R-NH2)]E[dL]C[Dab](DOTA)LIC[X1][dE](NH(1-deoxy-D-glucityl))-NH2; linker 7-11 via Pyridine(2,6-diCH2)) | < 10
8 | CC[C@H](C)[C@@H]1NC(=O)[C@H](CC(C)C)NC(=O)[C@@H](CCNC(=O)CN2CCN(CC(=O)O)CCN(CC(=O)O)CCN(CC(=O)O)CC2)NC(=O)[C@@H](NC(=O)[C@@H](CC(C)C)NC(=O)[C@H](CCC(=O)O)NC(=O)[C@@H]2C[C@@H](N)CN2C(=O)[C@H](Cc2c[nH]c3ccc(Cl)cc23)NC(=O)[C@H](Cc2c[nH]c3ccccc23)NC(=O)[C@H](CC(=O)O)NC(=O)CCCC(=O)NC[C@H](O)[C@@H](O)[C@H](O)[C@H](O)CO)CSCc2cccc(n2)CSC[C@@H](C(=O)NC2CCN(CC(=O)N[C@H](CCC(=O)NC[C@H](O)[C@@H](O)[C@H](O)[C@H](O)CO)C(N)=O)CC2)NC1=O [GIP-027, AGLU-Glutar-Asp-Trp-5Clw-Tap-Glu-leu-[Cys(2Lut)-dab(DOTA)-Leu-Ile-Cys]-APAc-glu(AGLU)-NH2] ({NH(1-deoxy-D-glucityl)-Glutaryl}-DW[Trp(5-Cl)][Pro(4R-NH2)]E[dL]C[dDab](DOTA)LIC[X1][dE](NH(1-deoxy-D-glucityl))-NH2; linker 7-11 via Pyridine(2,6-diCH2)) | 10 to 79.4
